# Test results taken from PMC6300130 (Journal of medicinal chemistry, 2018).
# Where “and” joins values, the source holds several entries; their conditions need not be identical. Equal values may be shown once. Read-outs that look alike come from different tables or passages of the source.
# How the values were obtained:
# [1] = test system: P. falciparum strain 3D7; conditions: cited from earlier work
# [2] = test system: P. falciparum had1 mutant strain; conditions: cited from earlier work
# [3] = test system: HepG2 cells; test: HepG2 cytotoxicity; type: cell-based, human; conditions: HepG2 IC50/P. falciparum IC50
# [4] = test system: P. falciparum strain 3D7; test: IPP rescue of inhibitor-treated P. falciparum; type: cell-based, Plasmodium falciparum; conditions: 125 μM IPP, 72 h
# [5] = test system: P. falciparum had1 mutant strain; test: Growth inhibition of had1 mutant P. falciparum; type: cell-based, Plasmodium falciparum; conditions: for sensitivity in had1 + HAD1-GFP strain: mutant supplied with wild-type copy of HAD1
# [6] = test system: MEP pathway metabolites in P. falciparum 3D7 parasites; test: MEP pathway metabolite profiling by LC-MS/MS; type: cell-based, Plasmodium falciparum; conditions: 5× the IC50 value, 10 h
# [7] = Tolerability in mice during efficacy study; type: in vivo, mouse; conditions: 20 and 50 mg/kg ip daily for 5 days
# [8] = test system: Mycobacterium tuberculosis (Mtb) DXR; conditions: cited from earlier work
# [9] = test system: Mtb; conditions: cited from earlier work
# [10] = cited from earlier work
structure (smiles),measurement,setting,value
"O=CN(O)CCCP(=O)([O-])O.[Na+] [1a, Fosmidomycin]",rescue of growth by exogenous IPP,[1],restoration effect
same,resistance of had1 parasites,[2],resistant
"O=CN(O)C/C=C/P(=O)([O-])O.[Na+] [12a, Sodium Hydrogen [(1E)-3-(N-Hydroxyformamido)prop-1-en-1-yl]phosphonate]",SI^Pf selectivity index,[3],> 2632
same,rescue of growth by exogenous IPP,[4],effectively rescues growth
same,sensitivity in had1 + HAD1-GFP strain,[5],restored
CC(=O)N(C/C=C/P(=O)([O-])O)OCc1ccc(C(C)C)cc1.[Na+] [16e],rescue of growth by exogenous IPP,[4],restored by IPP supplementation
same,resistance of had1 parasites compared with wild-type,[5]; words,more resistant
"CC(C)(C)C(=O)OCOP(=O)(/C=C/CN(O)C=O)OCOC(=O)C(C)(C)C [18a, [({[(2,2-Dimethylpropanoyl)oxy]methoxy}[(1E)-3-(N-hydroxyformamido)prop-1-en-1-yl]phosphoryl)oxy]methyl 2,2-Dimethylpropanoate]",rescue of growth by exogenous IPP,[4],effectively rescues growth
same,"DOXP level, treated vs untreated parasites",[6],did not show significant difference
same,sensitivity in had1 + HAD1-GFP strain,[5],restored
same,tolerability in mice,[7],no adverse effects were observed
CC(=O)N(O)C/C=C/P(=O)([O-])O.[Na+] [compound 2],increase in potency against Mtb DXR compared with FR900098,[8],2 fold
same,IC50,[8]; read-out: Mtb DXR IC50,1070 nM
CC(=O)N(O)C/C=C/P(=O)(OCOC(=O)C(C)(C)C)OCOC(=O)C(C)(C)C [compound 3],Mtb MIC99,[9],9.4 μg/mL and 22 μM
same,in vivo antimalarial activity,[10],potent in vivo antimalarial activity
CC(=O)N(CCCP(=O)(OCOC(=O)C(C)(C)C)OCOC(=O)C(C)(C)C)OCc1ccc2ccccc2c1 [compound 5],Mtb MIC99,[9],18.75 μg/mL and 33.2 μM
